We go through three compounds from patent publication US20070077552A1, “High throughput screen for inhibitors of polypeptide aggregation” (priority 2005, published 2007).

The subject of test [1] is Aβ. Particulars: cited from earlier work.
In test [2] the target is Aβ42 (Homo sapiens, UniProt P05067). The settings on record: shown previously (35, 36); cited from earlier work.
The target in test [3] is T1, Aβ42-linker-GFP fusion protein (Homo sapiens, UniProt P05067).
T1 construct: Wild-type Aβ42-linker-GFP was expressed in the absence (gray) or presence (black) of 10 μM tannic acid; host or cells: cell-free E. coli T7 S30 extract system for circular DNA
T1 sequence (P05067 with tags, fused parts or gaps): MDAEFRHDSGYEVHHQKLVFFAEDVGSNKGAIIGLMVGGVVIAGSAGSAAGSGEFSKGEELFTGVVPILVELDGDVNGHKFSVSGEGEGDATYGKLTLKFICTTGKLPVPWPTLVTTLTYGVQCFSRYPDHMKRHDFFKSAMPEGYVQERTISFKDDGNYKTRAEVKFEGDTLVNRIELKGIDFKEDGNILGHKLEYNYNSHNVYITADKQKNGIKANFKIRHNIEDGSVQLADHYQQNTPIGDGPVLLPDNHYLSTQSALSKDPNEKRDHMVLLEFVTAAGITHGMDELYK
Nature of the test: Cell-free Aβ42-linker-GFP fluorescence assay. The class given is biochemical. Particulars: 10 μM, cell-free system. Here is the method: In one embodiment, the assay uses a vector encoding Aβ42-linker-GFP in a cell-free in vitro transcription and translation system. For example, the basic protocol of the cell-free assay can involve the following steps: 1) Culture 500 ml to 1L of E. coli X1Blue strain harboring Aβ-linker-GFP fusion vector until the density of the suspension reaches O.D 0.9; 2) At O.D 0.9, spin down the cells at 4,000 g for 15 min; 3) Extract the vector using the Qiagen plasmid mega kit. (Cat. No. 12183); 4) After extraction, remove contaminants using phenol extraction; 5) Add E. coli T7 S30 extract system for circular DNA (Promega, Cat. No. L1130) into each well of a 96-well plate; 6) Add control or test substances (e.g. putative drug molecules or vectors that express inhibitory polypeptide) to each well; 7) Add Aβ-linker-GFP fusion vector, and express at RT or at 37 ° C. for 3 hrs; and 8) Measure the fluorescence emission at 510 nm (using an excitation at 490 nm). One of skill in the art will recognize that other transcription/translation systems, or a modified system, can be used. Likewise, the details of the protocol can be varied and optimized to accommodate other amyloidogenic proteins, to enhance the relative fluorescence, to accommodate the needs of the assayist, or a combination thereof.
FIG. 8 illustrates the inhibition of fluorescence of Aβ42-linker-GFP in a cell free system. […]

Aβ42, sequence (P05067 672-713 limits assumed, species assumed): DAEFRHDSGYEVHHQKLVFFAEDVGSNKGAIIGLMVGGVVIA

Regarding `CCc1nc(Nc2cccc(O)c2)nc(Nc2cccc(O)c2)n1` [RS-0466], in test [1], the Aβ oligomerization result is “block Aβ oligomerization” and the long-term potentiation result is recorded as “rescue long-term potentiation”.

Take `NCCc1ccc(O)c(O)c1` [dopamine]: the “inhibition of Aβ42 aggregation” value in test [2] is given as “inhibit A42 aggregation”.

Turning to `O=C(OC[C@H]1O[C@@H](OC(=O)c2cc(O)c(O)c(OC(=O)c3cc(O)c(O)c(O)c3)c2)[C@H](OC(=O)c2cc(O)c(O)c(OC(=O)c3cc(O)c(O)c(O)c3)c2)[C@@H](OC(=O)c2cc(O)c(O)c(OC(=O)c3cc(O)c(O)c(O)c3)c2)[C@@H]1OC(=O)c1cc(O)c(O)c(OC(=O)c2cc(O)c(O)c(O)c2)c1)c1cc(O)c(O)c(OC(=O)c2cc(O)c(O)c(O)c2)c1` [tannic acid], the “fluorescence of wild-type Aβ42-linker-GFP / inhibition of aggregation” value in test [3] is reported as “partially inhibits aggregation”. Moreover, in test [2], the “inhibition of Aβ42 aggregation” value is recorded as “inhibit A42 aggregation”.
